Measured values from patent publication US20260265238A1, “COMPOUNDS AND PHARMACEUTICAL COMPOSITIONS THAT DEGRADE SWI/SNF-RELATED MATRIX-ASSOCIATED ACTIN-DEPENDENT REGULATOR OF CHROMATIN SUBFAMILY A” (Plexium, Inc., priority 2023, published 2026).

Experiments:
[1] = target: T1, SMARCA2-HiBiT HeLa cells (protein which is expressed from the SMARCA2 gene) (Homo sapiens, UniProt P51531); experiment: SMARCA2 degradation assay (HiBiT-fusion HeLa cell line, 24 h, luminescence); format: cell-based
T1 construct: protein which is expressed from the SMARCA2 and SMARCA4 genes; host or cells: HeLa (SMARCA2-HiBiT engineered line)
Outline: (§1)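 In this 24-hour cellular degradation readout, HiBiT-tagged HeLa lines received compound at up to typically 10 μM down to 300 pM in 10 points. After lysis with LgBiT and substrate, luminescence signals were used to build dose-response curves for DC50.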

[2] = target: T2, SMARCA4-HiBiT HeLa cells (protein which is expressed from the SMARCA4 gene) (Homo sapiens, UniProt P51532); experiment: SMARCA4 degradation assay (HiBiT-fusion HeLa cell line, 24 h, luminescence); format: cell-based
T2 construct: protein which is expressed from the SMARCA2 and SMARCA4 genes; host or cells: HeLa (SMARCA4-HiBiT engineered line)
Outline: as §1

T2 sequence (P51532 whole entry, the tested form may be a part): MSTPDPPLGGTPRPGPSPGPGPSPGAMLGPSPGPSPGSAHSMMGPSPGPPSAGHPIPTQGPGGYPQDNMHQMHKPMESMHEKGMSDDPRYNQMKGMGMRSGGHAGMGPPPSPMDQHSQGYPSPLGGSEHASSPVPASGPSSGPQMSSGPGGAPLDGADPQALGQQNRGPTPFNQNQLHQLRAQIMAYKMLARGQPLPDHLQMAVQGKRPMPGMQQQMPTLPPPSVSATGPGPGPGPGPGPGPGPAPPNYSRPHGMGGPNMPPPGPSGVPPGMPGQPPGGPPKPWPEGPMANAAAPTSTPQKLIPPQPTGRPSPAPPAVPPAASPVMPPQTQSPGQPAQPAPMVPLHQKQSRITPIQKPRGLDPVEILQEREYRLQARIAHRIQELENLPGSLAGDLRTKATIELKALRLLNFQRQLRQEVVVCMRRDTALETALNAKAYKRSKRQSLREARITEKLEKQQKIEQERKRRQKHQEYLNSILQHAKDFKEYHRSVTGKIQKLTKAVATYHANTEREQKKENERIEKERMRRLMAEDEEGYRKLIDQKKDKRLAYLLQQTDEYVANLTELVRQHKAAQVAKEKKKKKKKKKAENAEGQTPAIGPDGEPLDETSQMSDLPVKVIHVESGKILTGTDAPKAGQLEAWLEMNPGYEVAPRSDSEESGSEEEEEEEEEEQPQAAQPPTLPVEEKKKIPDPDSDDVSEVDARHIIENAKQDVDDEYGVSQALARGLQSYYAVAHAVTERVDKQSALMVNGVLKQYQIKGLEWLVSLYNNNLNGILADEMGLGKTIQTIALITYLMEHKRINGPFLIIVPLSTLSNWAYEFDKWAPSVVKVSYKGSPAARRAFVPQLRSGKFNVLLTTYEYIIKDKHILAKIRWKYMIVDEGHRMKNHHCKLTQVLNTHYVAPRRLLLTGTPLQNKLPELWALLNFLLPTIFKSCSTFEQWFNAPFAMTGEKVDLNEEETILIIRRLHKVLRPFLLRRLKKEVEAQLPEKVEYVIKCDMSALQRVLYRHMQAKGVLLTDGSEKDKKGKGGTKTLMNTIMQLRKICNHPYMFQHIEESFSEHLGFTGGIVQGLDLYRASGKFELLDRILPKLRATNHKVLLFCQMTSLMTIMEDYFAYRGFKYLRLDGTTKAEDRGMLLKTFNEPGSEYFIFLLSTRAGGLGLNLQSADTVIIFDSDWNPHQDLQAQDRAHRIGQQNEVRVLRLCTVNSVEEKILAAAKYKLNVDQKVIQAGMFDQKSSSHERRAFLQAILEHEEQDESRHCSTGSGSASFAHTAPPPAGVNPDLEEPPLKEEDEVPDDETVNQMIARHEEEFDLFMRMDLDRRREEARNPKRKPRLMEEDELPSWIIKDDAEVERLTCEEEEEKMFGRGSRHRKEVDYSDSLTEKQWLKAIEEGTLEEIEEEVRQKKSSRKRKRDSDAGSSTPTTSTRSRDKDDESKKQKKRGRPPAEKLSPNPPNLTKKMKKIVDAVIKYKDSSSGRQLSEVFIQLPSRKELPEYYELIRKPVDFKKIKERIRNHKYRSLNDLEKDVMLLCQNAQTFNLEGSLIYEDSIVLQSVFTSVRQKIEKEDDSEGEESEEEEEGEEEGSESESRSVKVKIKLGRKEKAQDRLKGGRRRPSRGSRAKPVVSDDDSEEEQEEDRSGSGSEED
T1 sequence (P51531 whole entry, the tested form may be a part): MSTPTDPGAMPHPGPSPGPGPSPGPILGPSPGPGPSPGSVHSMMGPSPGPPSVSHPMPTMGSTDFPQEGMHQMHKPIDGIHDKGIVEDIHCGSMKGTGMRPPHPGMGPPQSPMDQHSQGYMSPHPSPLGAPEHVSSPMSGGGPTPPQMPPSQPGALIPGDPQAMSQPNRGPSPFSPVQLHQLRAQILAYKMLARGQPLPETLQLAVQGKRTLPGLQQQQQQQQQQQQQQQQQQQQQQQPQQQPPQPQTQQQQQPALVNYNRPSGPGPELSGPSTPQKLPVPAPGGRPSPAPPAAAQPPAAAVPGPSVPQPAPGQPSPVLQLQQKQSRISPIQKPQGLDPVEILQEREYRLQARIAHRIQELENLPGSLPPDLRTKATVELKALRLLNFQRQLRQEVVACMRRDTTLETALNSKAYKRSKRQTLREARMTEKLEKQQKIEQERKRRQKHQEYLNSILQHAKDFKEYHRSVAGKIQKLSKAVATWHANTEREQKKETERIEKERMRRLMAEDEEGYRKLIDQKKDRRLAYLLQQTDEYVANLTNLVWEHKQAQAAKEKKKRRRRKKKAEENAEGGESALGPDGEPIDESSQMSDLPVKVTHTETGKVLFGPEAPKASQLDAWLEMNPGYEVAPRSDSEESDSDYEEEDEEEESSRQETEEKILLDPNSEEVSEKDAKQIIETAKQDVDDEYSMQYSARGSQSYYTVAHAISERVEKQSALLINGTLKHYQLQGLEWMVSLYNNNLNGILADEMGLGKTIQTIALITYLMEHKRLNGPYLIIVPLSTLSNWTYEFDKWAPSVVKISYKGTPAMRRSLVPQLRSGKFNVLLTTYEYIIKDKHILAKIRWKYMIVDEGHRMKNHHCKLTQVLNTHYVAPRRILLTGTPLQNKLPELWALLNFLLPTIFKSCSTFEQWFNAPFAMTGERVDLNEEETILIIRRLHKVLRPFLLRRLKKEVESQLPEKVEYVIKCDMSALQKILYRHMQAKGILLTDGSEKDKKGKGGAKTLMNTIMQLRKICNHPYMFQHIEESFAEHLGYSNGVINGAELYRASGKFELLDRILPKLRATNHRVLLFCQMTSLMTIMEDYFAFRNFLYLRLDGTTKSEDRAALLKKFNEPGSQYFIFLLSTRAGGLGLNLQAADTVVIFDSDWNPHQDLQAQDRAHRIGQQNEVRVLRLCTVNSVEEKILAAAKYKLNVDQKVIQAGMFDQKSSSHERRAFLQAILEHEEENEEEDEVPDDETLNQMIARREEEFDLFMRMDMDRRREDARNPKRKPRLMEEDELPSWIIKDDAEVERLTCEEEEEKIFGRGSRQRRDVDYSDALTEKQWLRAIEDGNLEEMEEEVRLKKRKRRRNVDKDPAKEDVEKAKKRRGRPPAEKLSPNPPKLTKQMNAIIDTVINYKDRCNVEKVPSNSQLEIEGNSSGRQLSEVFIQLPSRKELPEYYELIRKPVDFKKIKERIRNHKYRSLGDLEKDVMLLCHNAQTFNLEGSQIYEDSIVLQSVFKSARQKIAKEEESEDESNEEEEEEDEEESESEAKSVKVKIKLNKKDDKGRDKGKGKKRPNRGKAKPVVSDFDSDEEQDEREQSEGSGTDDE

SMILES | DC50 [1] [nM] | SMARCA2 % Degradation @ 1 μM [1] | DC50 [2] [nM] | inhibition at 1 µM [2] [%]
CNCC#Cc1nccc(N2CCN(c3cc(-c4ccccc4O)nnc3N)CC[C@H]2C)n1 [Compound P-297, 0-{5-[(R)-5-methyl-4-{2-[3-(methylamino)-1-propynyl]-4-pyrimidinyl}-1,4-diazepan-1-yl]-6-amino-3-pyridazinyl} phenol] | 50 to 500 | ++ (++=30-70%) | < 50 | < 30
Nc1nnc(-c2ccccc2O)cc1N1CCCN(c2ccnc(C#CCN3CCOCC3)n2)CC1 [Compound P-136, 2-(6-amino-5-(4-(2-(3-morpholinoprop-1-yn-1-yl)pyrimidin-4-yl)-1,4-diazepan-1-yl)pyridazin-3-yl)phenol] | 50 to 500 | ++ (++=30-70%) | 50 to 500 | 30 to 70
CN(C)CC#Cc1nccc(N2CC3CC(Oc4cc(-c5ccccc5O)nnc4N)CC3C2)n1 (stereo not shown) [Compound P-222, o-[6-amino-5-(3-{2-[3-(dimethylamino)-1-propynyl]-4-pyrimidinyl}-3-azabicyclo[3.3.0]oct-7-yloxy)-3-pyridazinyl]phenol] | 50 to 500 | +++ (+++=>70%) | 50 to 500 | > 70
C[C@@H]1CCN(c2cc(-c3ccccc3O)nnc2N)CCN1c1nc(C#CCN(C)C)ncc1F [Compound P-226, o-{5-[(R)-4-{2-[3-(dimethylamino)-1-propynyl]-5-fluoro-4-pyrimidinyl}-5-mcthyl-1,4-diazcpan-1-yl]-6-amino-3-pyridazinyl}phenol] | < 50 | ++ (++=30-70%) | < 50 | < 30
Nc1nnc(-c2ccccc2O)cc1N1C2CCC1CN(c1ccnc(C#CCN3CC4CC3C4)n1)C2 [Compound P-182, o-{6-amino-5-[3-(2-{3-(2-azabicyclo[2.1.1]hex-2-yl)-1-propynyl}-4-pyrimidinyl)-3,8-diazabicyclo[3.2.1]oct-8-yl]-3-pyridazinyl}phenol] | 50 to 500 | ++ (++=30-70%) | 50 to 500 | 30 to 70
Nc1nnc(-c2ccccc2O)cc1N1C2CCC1CN(c1ccnc(C#CCn3cncn3)n1)C2 [Compound P-283, 0-[6-amino-5-(3-{2-[3-(1H-1,2,4-triazol-1-yl)-1-propynyl]-4-pyrimidinyl}-3,8-diazabicyclo[3.2.1]oct-8-yl)-3-pyridazinyl]phenol] | 50 to 500 | ++ (++=30-70%) | 50 to 500 | < 30
CC(C)(C)OC(=O)NC1CCN(CC#Cc2nccc(N3CCCN(c4cc(-c5ccccc5O)nnc4N)CC3)n2)CC1 [Compound P-142, tert-butyl (1-(3-(4-(4-(3-amino-6-(2-hydroxyphenyl)pyridazin-4-yl)-1,4-diazepan-1-yl)pyrimidin-2-yl)prop-2-yn-1-yl)piperidin-4-yl)carbamate] | 50 to 500 | +++ (+++=>70%) | 50 to 500 | > 70
C[C@@H]1CCN(c2cc(-c3ccccc3O)nnc2N)CCN1c1ccnc(C#CCN2C3CCC2COC3)n1 [Compound P-160, o-{5-[(R)-5-methyl-4-(2-{3-(3-oxa-8-azabicyclo[3.2.1]oct-8-yl)-1-propynyl}-4-pyrimidinyl)-1,4-diazepan-1-yl]-6-amino-3-pyridazinyl}phenol] | 50 to 500 | +++ (+++=>70%) | 50 to 500 | 30 to 70
C[C@@H]1CCN(c2cnnc(-c3ccccc3O)c2)CCN1c1ccc(C#N)c(C#CCNC(=O)c2cc3ncccn3n2)n1 [Compound P-410, N-[3-(6-{(R)-4-[6-(0-hydroxyphenyl)-4-pyridazinyl]-7-methyl-1,4-diazepan-1-yl}-3-cyano-2-pyridyl)-2-propynyl]-1,4,7a-triaza-2-indenecarboxamide] | > 5000 |  | > 5000 | 
CC(C)(C)OC(=O)NCC#Cc1nccc(N2CCC3CCC(C2)N3c2cc(-c3ccccc3O)nnc2N)n1 (stereo not shown) [Compound P-267, 3-(4-{9-[3-amino-6-(o-hydroxyphenyl)-4-pyridaziny1]-3,9-diazabicyclo[4.2.1]non-3-yl}-2-pyrimidinyl)-2-propynylamino-tert-butylformylate] | 50 to 500 | +++ (+++=>70%) | 50 to 500 | 30 to 70

More lines, now with the values ahead:

DC50 [1] [nM] | SMARCA2 % Degradation @ 1 μM [1] | DC50 [2] [nM] | inhibition at 1 µM [2] [%] | SMILES
500 to 5000 | + (+=<30%) | 500 to 5000 | < 30 | C[C@H]1CN(c2ccnc(C#CCNC(=O)c3cc4ncccn4n3)n2)C[C@H](C)N1c1cc(-c2ccccc2O)nnc1N [Compound P-16, N-(3-(4-((3S,5S)-4-(3-amino-6-(2-hydroxyphenyl)pyridazin-4-y1)-3,5-dimethylpiperazin-1-yl)pyrimidin-2-yl)prop-2-yn-1-yl)pyrazolo[1,5-a]pyrimidine-2-carboxamide]
50 to 500 | +++ (+++=>70%) | 50 to 500 | 30 to 70 | Nc1nnc(-c2ccccc2O)cc1N1CCCN(c2ccnc(C#CCN3CCCC3=O)n2)CC1 [Compound P-372, 1-[3-(4-{4-[3-amino-6-(o-hydroxyphenyl)-4-pyridaziny1]-1,4-diazepan-1-y1}-2-pyrimidinyl)-2-propynyl]-2-pyrrolidinone]
50 to 500 | ++ (++=30-70%) | 500 to 5000 | 30 to 70 | N#CC1CCN(CC#Cc2nccc(N3CCCN(c4cc(-c5ccccc5O)nnc4N)CC3)n2)CC1 [Compound P-357, 1-[3-(4-{4-[3-amino-6-(o-hydroxyphenyl)-4-pyridazinyl]-1,4-diazepan-1-yl}-2-pyrimidinyl)-2-propynyl]-4-piperidinecarbonitrile]
< 50 | ++ (++=30-70%) | < 50 | 30 to 70 | CC(C)(C)OC(=O)NCC#Cc1nccc(N2CC3=C(C2)CN(c2cc(-c4ccccc4O)nnc2N)C3)n1 [Compound P-259, 3-(4-{7-[3-amino-6-(o-hydroxyphenyl)-4-pyridaziny1]-3,7-diazabicyclo[3.3.0]oct-1(5)-en-3-y1}-2-pyrimidinyl)-2-propynylamino-tert-butylformylate]
< 50 | ++ (++=30-70%) | < 50 | 30 to 70 | CC(C#Cc1nccc(N2CCN(c3cc(-c4ccccc4O)nnc3N)CC[C@H]2C)n1)N(C)C (stereo partly drawn) [Compound P-254, o-{5-[(R)-4-{2-[3-(dimethylamino)-1-butynyl]-4-pyrimidinyl}-5-methyl-1,4-diazepan-1-yl]-6-amino-3-pyridazinyl}phenol]
50 to 500 | ++ (++=30-70%) | 50 to 500 | 30 to 70 | C[C@H](O)C#Cc1nccc(N2CCCN(c3cc(-c4ccccc4O)nnc3N)CC2)n1 [Compound P-321, 0-[5-(4-{2-[(S)-3-hydroxy-1-butynyl]-4-pyrimidinyl}-1,4-diazepan-1-yl)-6-amino-3-pyridazinyl]phenol]
< 50 | ++ (++=30-70%) | < 50 | 30 to 70 | C[C@@H]1CN(c2cc(-c3ccccc3O)nnc2N)CCN1c1ccnc(C#CCNC(=O)c2cc3ncccn3n2)n1 [Compound P-50, (R)-N-(3-(4-(4-(3-amino-6-(2-hydroxyphenyl)pyridazin-4-yl)-2-methylpiperazin-1-yl)pyrimidin-2-yl)prop-2-yn-1-yl)pyrazolo[1,5-a]pyrimidine-2-carboxamide]
50 to 500 | +++ (+++=>70%) | 50 to 500 | 30 to 70 | Nc1nnc(-c2ccccc2O)cc1N1CCCN(c2ccnc(C#CCN[C@H]3CCOC3)n2)CC1 [Compound P-275, 0-{5-[4-(2-{3-[(S)-tetrahydro-3-furylamino]-1-propynyl}-4-pyrimidinyl)-1,4-diazepan-1-yl]-6-amino-3-pyridaziny1}phenol]
50 to 500 |  | 50 to 500 | 30 to 70 | CC(C)(C)OC(=O)N1CCC[C@H]1C#Cc1nccc(N2CCCN(c3cc(-c4ccccc4O)nnc3N)CC2)n1 [Compound P-314, tert-butyl (S)-2-[2-(4-{4-[3-amino-6-(o-hydroxyphenyl)-4-pyridazinyl]-1,4-diazepan-1-yl}-2-pyrimidinyl)ethynyl]-1-pyrrolidinecarboxylate]
< 50 | ++ (++=30-70%) | < 50 | < 30 | C[C@@H]1CCN(c2cc(-c3ccccc3O)nnc2N)CCN1c1ccnc(C#CCN2CC[C@@H](F)C2)n1 [Compound P-236, o-{5-[(R)-4-(2-{3-[(R)-3-fluoro-1-pyrrolidinyl]-1-propynyl}-4-pyrimidinyl)-5-methyl-1,4-diazepan-1-yl]-6-amino-3-pyridaziny1} phenol]
50 to 500 | ++ (++=30-70%) | 50 to 500 | 30 to 70 | CCc1cc(C(=O)NCC#Cc2nccc(N3CCN(c4cc(-c5ccccc5O)nnc4N)CC3)n2)nn1C [Compound P-2, N-[3-(4-{4-[3-amino-6-(2-hydroxyphenyl)pyridazin-4-yl]piperazin-1-yl}pyrimidin-2-yl)prop-2-yn-1-yl]-5-ethyl-1-methyl-1H-pyrazole-3-carboxamide]
50 to 500 | ++ (++=30-70%) | 50 to 500 | < 30 | Nc1nnc(-c2ccccc2O)cc1N1CCN(c2ccnc(C#CCNC(=O)c3cccnn3)n2)CC1 [Compound P-5, N-[3-(4-{4-[3-amino-6-(2-hydroxyphenyl)pyridazin-4-yl]piperazin-1-yl}pyrimidin-2-yl)prop-2-yn-1-yl]pyridazine-3-carboxamide]
